In one test the test system is Staphylococcus aureus. Description: Antibacterial activity against Staphylococcus aureus NBRC13276 incubated overnight by disc diffusion assay. Type of test: functional. Background: A growth-free zone around the sample is the usual read-out of agar diffusion tests.
The nature of test [1]: Metal chelating activity assessed as CAS-Cu complex formation in presence of CAS/CuCl2 by UV-Vis spectrophotometric analysis.
In test [2] the test system is Brevibacillus choshinensis. Kind of test: Antibacterial activity against Brevibacillus SP3 incubated overnight by disc diffusion assay. Type of test: functional.
Another test has as its system Jonesia denitrificans. Kind of test: Antibacterial activity against Listeria denitrificans NBRC15587 incubated overnight by disc diffusion assay. Type of test: functional.
The test system of a further test is Escherichia coli. Kind of test: Antibacterial activity against Escherichia coli NEB10beta incubated overnight by disc diffusion assay. Type of test: functional.
Another test deals with Pseudomonas aeruginosa. Kind of test: Antibacterial activity against Pseudomonas aeruginosa NBRC12689 incubated overnight by disc diffusion assay. Type of test: functional.

In general, EC50 refers to the concentration that produces a half-maximal response.

Take `[C-]#[N+][C@H](C(=O)OC[C@@H](O)[C@@H](O)[C@H](O)[C@H](O)COC(=O)[C@@H]([N+]#[C-])C(C)C)C(C)C`: the MIC against Staphylococcus aureus was 5 µg; in test [2], 5 µg; in the test on Jonesia denitrificans, 5 µg; with Escherichia coli, >100 µg; in the test with Pseudomonas aeruginosa, >100 µg. In addition, the EC50 in test [1] stood at 8 µM.
Turning to `CC(C)[C@H](NC=O)C(=O)OC[C@@H](O)[C@@H](O)[C@H](O)[C@H](O)COC(=O)[C@@H](NC=O)C(C)C`, the MIC (against Staphylococcus aureus; in test [2]; with Jonesia denitrificans; in the test on Escherichia coli; with Pseudomonas aeruginosa) was >100 µg throughout.
Consider `[C-]#[N+][C@H](C(=O)OC[C@@H](O)[C@@H](O)[C@H](O)[C@H](O)COC(=O)[C@@H](NC=O)C(C)C)C(C)C`, for which the MIC (against Staphylococcus aureus; in test [2]; against Jonesia denitrificans; against Escherichia coli; against Pseudomonas aeruginosa) was >100 µg in each case. The EC50 in test [1] is 26.9 µM.

The record behind these values is ChEMBL document CHEMBL6182885, “Discovery, Biological Activity, and Biosynthesis of Pinocicolin A, an Antibiotic Isocyanide Metabolite Produced by Penicillium pinophilum” (J Nat Prod, 2025).
